# Source: ChEMBL document CHEMBL3244207, “Synthesis and antiallergic activity of 2-hydroxy-3-nitro-1,4-naphthoquinones” (1977)
# Calls of active or inactive are those of the source. The calls are words filed in the database; no cut-off is given here.
# Test system: Rattus norvegicus
# Experiment: Antiallergic activity in sc dosed Wistar rat assessed as inhibition of passive cutaneous anaphylaxis at Tmax
# Format: functional
row,Compound,ED50 [µmol/kg]
1,Cc1cc2c(cc1C)C(=O)C([N+](=O)[O-])=C(O)C2=O,11
2,O=C1C([N+](=O)[O-])=C(O)C(=O)c2c(O)cccc21,> 500
3,O=C1C(O)=C([N+](=O)[O-])C(=O)c2ccc(Br)cc21,> 500
4,COc1cc2c(cc1OC)C(=O)C([N+](=O)[O-])=C(O)C2=O,42.8
5,Cc1cccc2c1C(=O)C(O)=C([N+](=O)[O-])C2=O,76.2
6,Cc1ccc2c(c1)C(=O)C([N+](=O)[O-])=C(O)C2=O,63.9
7,COc1ccc2c(c1)C(=O)C(O)=C([N+](=O)[O-])C2=O,51.3
8,O=C1C(O)=C([N+](=O)[O-])C(=O)c2ccc(-c3ccccc3)cc21,> 500
9,O=C1C(O)=C([N+](=O)[O-])C(=O)c2ccc(F)cc21,> 500
10,CCOc1ccc2c(c1)C(=O)C(O)=C([N+](=O)[O-])C2=O,68.2
11,O=C1C(O)=C([N+](=O)[O-])C(=O)c2cc3c(cc21)CCCC3,7.3
12,O=C1C(O)=C([N+](=O)[O-])C(=O)c2ccccc21,141
13,CCc1cc2c(cc1CC)C(=O)C([N+](=O)[O-])=C(O)C2=O,27.3
14,O=C(O)c1cc(=O)c2c(OCC(O)COc3cccc4oc(C(=O)O)cc(=O)c34)cccc2o1 [CROMOLYN SODIUM],13.1
15,Cc1ccc2c(c1)C(=O)C(O)=C([N+](=O)[O-])C2=O,181

# Test system: Rattus norvegicus
# Experiment: Antiallergic activity in po dosed Wistar rat assessed as inhibition of passive cutaneous anaphylaxis administered 10 mins prior to antigen-challenge
# Format: functional
row,Compound,ED50 [µmol/kg]
1,Cc1cc2c(cc1C)C(=O)C([N+](=O)[O-])=C(O)C2=O,100
2,O=C1C(O)=C([N+](=O)[O-])C(=O)c2cc3c(cc21)CCCC3,100

# Test system: Rattus norvegicus
# Experiment: Antiallergic activity in Wistar rat assessed as inhibition of passive cutaneous anaphylaxis up to 500 uM/kg, sc
# Format: functional, organism-based
row,Compound,inhibition
1,Cc1ccc2c(c1)C(O)=C([N+](=O)[O-])C(=O)C2(C)C,inactive
2,Cc1cccc2c1C(C)(C)C(=O)C([N+](=O)[O-])=C2O,inactive
3,Cc1c(O)c([N+](=O)[O-])c(O)c2ccccc12,inactive
4,CC1(C)C(=O)C([N+](=O)[O-])=C(O)c2ccccc21,inactive
